Test results taken from patent publication US7199259B2, “Resolution of α-(phenoxy)phenylacetic acid derivatives” (Metabolex, Inc., priority 2003, dated 2007).

Assays:
[1] = Solubility of racemic CPTA sodium salt in water; assay type: physicochemical; conditions: sodium hydroxide added to pH about 12.6 versus pH about 9.5
Description: A 100-mL water jacketed resin pot with a magnetic stirrer was connected to a recirculating water bath and charged with 3.48 g of the racemic CPTA sodium salt and 20.0 g of water. The bath temperature was warmed to 35° C., and the slurry was stirred for one hour. The agitator was shut off, and the solid was allowed to settle for 30 min. The pH was 9.4. A 0.3036 g-sample of the supernate was removed and diluted to 25.00 mL with acetonitrile, and the solution was assayed by HPLC analysis. Analysis was repeated at 47° C. and at 19° C. An additional 3.01 g of CPTA sodium salt was added to maintain a slurry at the higher temperature, and 25 g of water was added to give a thinner slurry at the lower temperature. The pH was increased to 12.7 at ambient temperature by the addition of 50% aqueous sodium hydroxide, and the analysis was continued at 13.5, 25, 34, and 42° C.

[2] = Solubility of CPTA CAF D-Base salts in 2-propanol containing 11% free CPTA; assay type: physicochemical; conditions: 2-propanol with 11% free CPTA, FIG. 3
Description: “Solvent” was prepared by dissolving 2.40 g of racemic CPTA in 19.42 g of 2-propanol (Fisher HPLC Grade) or 4.90 g of racemic CPTA in 31.4 g of ethanol. The respective concentrations of CPTA in solution were 11.0% and 13.5%. Solubility of the (−)-CPTA·CAF D-Base Salt (i.e., (−)-Salt) or (+)-CPTA.CAF D-Base Salt (i.e., (+)-Salt) was determined by a gravimetric method. At a given temperature, a portion of the supernatant liquid from a saturated solution was remove to a vial of known weight. The solution weight was determined, and the volatile solvent was evaporated with a purge of nitrogen. The solid was further dried to constant weight in a vacuum oven at about 50° C./1 mm Hg. The vial was re-weighed to determine the loss of volatile solvent and weight of solid remaining. From this, the amount of dissolved CPTA from the “solvent” could be calculated. Subtracting the weight of total solid from the CPTA gave the weight of soluble salt in the solvent.

[3] = Solubility of diastereomeric CPTA-CAF D base salts in 2-propanol; assay type: physicochemical; conditions: for Wt % in solution: slurry held overnight
Description: Samples of (−)-CPTA CAF D Base and (+)-CPTA CAF D Base (>98% ee) were added to 2-propanol in the amounts shown in Table 8, and mixed using an ultrasonic bath. All samples remained slurries. The slurries were held overnight at the temperature listed, then samples of the supernates were removed and analyzed by quantitative HPLC analysis to determine the CPTA concentration. Additionally, 8.00 g of (−)-CPTA CAF D Base salt required 54.2 g of 2-propanol for solution at 82° C. (14.7 wt %).

cytochrome P450 2C9 = cytochrome P450 2C9 (Homo sapiens, UniProt P11712); conditions: cited from earlier work
cytochrome P450 2C9, sequence (P11712 whole entry): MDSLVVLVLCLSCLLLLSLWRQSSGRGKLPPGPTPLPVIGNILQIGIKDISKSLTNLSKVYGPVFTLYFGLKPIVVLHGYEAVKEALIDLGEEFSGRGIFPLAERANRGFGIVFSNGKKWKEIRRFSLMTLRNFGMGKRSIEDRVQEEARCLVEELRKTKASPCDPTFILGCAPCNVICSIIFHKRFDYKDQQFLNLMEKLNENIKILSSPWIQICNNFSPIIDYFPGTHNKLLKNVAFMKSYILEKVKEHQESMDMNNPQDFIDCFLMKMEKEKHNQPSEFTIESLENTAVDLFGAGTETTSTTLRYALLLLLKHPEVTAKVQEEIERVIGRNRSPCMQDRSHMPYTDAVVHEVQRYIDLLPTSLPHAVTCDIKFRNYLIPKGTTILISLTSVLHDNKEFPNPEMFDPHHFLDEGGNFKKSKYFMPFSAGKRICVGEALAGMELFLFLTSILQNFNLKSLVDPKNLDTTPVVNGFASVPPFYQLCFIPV

[4] = Solubility in methylene chloride; assay type: physicochemical

## O=C([O-])C(Oc1cccc(C(F)(F)F)c1)c1ccc(Cl)cc1.[Na+] (racemic) [sodium salt of racemic CPTA]
[1]
  aqueous solubility, effect of raising pH: decreased the aqueous solubility

## NC(CO)C(O)c1ccc([N+](=O)[O-])cc1.O=C(O)C(Oc1cccc(C(F)(F)F)c1)c1ccc(Cl)cc1 (single isomer, unassigned; (-)) [(−)-CPTA CAF D Base Salt]
[2]
  solubility in 2-propanol containing 11% free CPTA versus pure 2-propanol: greater solubility
[3]; 7.8 °C
  Wt % in solution: 0.376 Wt %
[3]; 19.4 °C
  Wt % in solution: 0.688 Wt %
[3]; 45.3 °C
  Wt % in solution: 2.35 Wt %
[3]; 82 °C, 8.00 g salt in 54.2 g 2-propanol
  solubility in 2-propanol (amount required for solution): 14.7 wt %
[3]; FIG. 1 profiles
  solubility in 2-propanol relative to the (+)-CPTA form: approximately three times less soluble

## O=C(O)C(Oc1cccc(C(F)(F)F)c1)c1ccc(Cl)cc1 (single isomer, unassigned; (-)) [(−)-enantiomer of halofenic acid]
Cytochrome P450 2C9; relative to (+)-enantiomer of halofenic acid
  ability to inhibit cytochrome P450 2C9 compared to the (+)-enantiomer: about twenty-fold less active

## NC(CO)C(O)c1ccc([N+](=O)[O-])cc1.O=C(O)C(Oc1cccc(C(F)(F)F)c1)c1ccc(Cl)cc1 (single isomer, unassigned; (+)) [(+)-CPTA CAF D Base Salt]
[2]
  solubility in 2-propanol containing 11% free CPTA versus pure 2-propanol: greater solubility
[3]; 8.5 °C
  Wt % in solution: 1.32 Wt %
[3]; 20.0 °C
  Wt % in solution: 1.85 Wt %
[3]; 45.8 °C
  Wt % in solution: 6.03 Wt %

## O=C(O)C(Oc1cccc(C(F)(F)F)c1)c1ccc(Cl)cc1 (racemic) [halofenic acid, (4-chlorophenyl)(3-trifluoromethylphenoxy)acetic acid]
Cytochrome P450 2C9; racemic acid
  inhibition of cytochrome P450 2C9: inhibits
[4]
  solubility in methylene chloride: less than 3.4%
